Here are results for five compounds from ChEMBL document CHEMBL1140860, “Synthesis and evaluation of dihydroartemisinin and dihydroartemisitene acetal dimers showing anticancer and antiprotozoal activity” (Bioorg Med Chem, 2009).

A word on the IC50: it is the concentration needed to halve the response being measured. As usually defined, the IC90 is the point of the concentration-response curve where the effect stands at 90%.

The subject of series [1] is Plasmodium falciparum. Description: Antimalarial activity after 72 hrs against chloroquine-sensitive Plasmodium falciparum D6 infected in erythrocytes by LDH assay. As to conditions: D6, 72 h. Type of series: functional, organism-based.
Series [2] is described as follows: Selectivity index, ratio of TC50 for african green monkey (Cercopithecus aethiops) Vero cells to IC50 for chloroquine-sensitive Plasmodium falciparum D6. Type of series: toxicity, cell-based.
Series [3] deals with Plasmodium falciparum. Put plainly: Antimalarial activity after 72 hrs against chloroquine-resistant Plasmodium falciparum W2 infected erythrocytes by LDH assay. Type of series: functional, organism-based. As to conditions: W2, 72 h.
Series [4] is described as follows: Selectivity index, ratio of TC50 for african green monkey (Cercopithecus aethiops) Vero cells to IC50 for chloroquine-resistant Plasmodium falciparum W2. Type of series: toxicity, cell-based.
Series [5] is described as follows: Cytotoxicity against african green monkey Vero cells after 48 hrs by neutral red assay. Type of series: cell-based. The settings on record: chlorocebus sabaeus, read-out: TC50.
In another series the test system is Leishmania donovani. Description: Antileishmanial activity against Leishmania donovani promastigotes after 48 hrs by alamar-blue assay. Type of series: functional, organism-based. (The colour change of resazurin is a common sign of viable cells or microbes.)

Take `C[C@H]1[C@H](O[C@H]2O[C@@H]3O[C@@]4(C)CC[C@H]5[C@H](C)CC[C@@H]([C@H]2C)[C@@]35OO4)O[C@@H]2O[C@@]3(C)CC[C@H]4[C@H](C)CC[C@@H]1[C@@]24OO3`: the figures for the IC50 with Plasmodium falciparum [1] and in the series with Plasmodium falciparum [3] were 23.6 µM and 25.4 µM, respectively. Moreover, the selectivity ratio in series [2] is greater than 37; in series [4], greater than 34. Also, the CC50 at 48 h in series [5] is greater than 864 µM.
Take `C[C@H]1[C@@H](O[C@H]2O[C@@H]3O[C@@]4(C)CC[C@H]5[C@H](C)CC[C@@H]([C@H]2C)[C@@]35OO4)O[C@@H]2O[C@@]3(C)CC[C@H]4[C@H](C)CC[C@@H]1[C@@]24OO3`: the IC50 was determined as 11.8 µM in the series on Plasmodium falciparum [1] and 6.9 µM in the series on Plasmodium falciparum [3]. For the same compound, the selectivity ratio is greater than 73 in series [2] and greater than 125 in series [4]. In series [5], the CC50 at 48 h was greater than 864 µM.
In the series with Leishmania donovani, `C[C@@H]1[C@H](O)[C@@H](C)/C=C/C=C/C=C/C=C/C=C/C=C/C=C/[C@H](O[C@@H]2O[C@H](C)[C@@H](O)[C@H](N)[C@@H]2O)C[C@@H]2O[C@](O)(C[C@@H](O)C[C@@H](O)[C@H](O)CC[C@@H](O)C[C@@H](O)CC(=O)O[C@H]1C)C[C@H](O)[C@H]2C(=O)O` [AMPHOTERICIN B] came in with an IC50 of 0.1 µM and an IC90 of 0.2 µM.
As to `C[C@@H]1CC[C@H]2[C@@H](C)C(=O)O[C@@H]3O[C@@]4(C)CC[C@@H]1[C@]32OO4` [ARTEMISININ], the values for the selectivity ratio in series [2] and in series [4] were greater than 170 and greater than 106, respectively. Also, the CC50 at 48 h in series [5] is greater than 1690 µM.
For `N=C(N)c1ccc(OCCCCCOc2ccc(C(=N)N)cc2)cc1` [PENTAMIDINE], in the series on Leishmania donovani, the IC50 amounted to 3.5 µM and the 90% effect level (IC90) was put at 14.7 µM.
